Test results: ChEMBL document CHEMBL4616607, “3D proteome-wide scale screening and activity evaluation of a new ALKBH5 inhibitor in U87 glioblastoma cell line” (Bioorg Med Chem, 2020)
The source made the active and inactive calls. No cut-off for these calls is given here.

Assays:
[1] = test system: U-87 MG; experiment: Cytotoxicity against human U87MG cells assessed as effect on cell viability at 1 to 50 uM measured after 24 hrs by SRB assay; type: functional, cell-based; details: U-87MG ATCC
[2] = test system: A549; experiment: Cytotoxicity against human A549 cells assessed as reduction in cell viability measured after 24 hrs by MTT assay; type: functional, cell-based
[3] = test system: U-87 MG; experiment: Antimigratory activity against human U87MG cells assessed as inhibition of cell migration measured after 6 hrs by scratch wound healing assay; type: functional, cell-based, U-87MG ATCC
[4] = test system: A549; experiment: Antimigratory activity against human A549 cells assessed as reduction in cell migration at 25 uM measured after 24 hrs by scratch wound healing assay; type: functional, cell-based
[5] = test system: U-87 MG; experiment: Effect on CD73 mRNA expression in human U87MG cells at 10 to 25 uM measured after 1 to 6 hrs by RT-PCR analysis; type: functional, cell-based; details: U-87MG ATCC
[6] = target: RNA demethylase ALKBH5 (Homo sapiens) (UniProt Q6P6C2); experiment: Inhibition of human recombinant ALKBH5 demethylase activity assessed as increase in methylated 6A-RNA level incubated for 30 min by dot blot analysis
Sequence of RNA demethylase ALKBH5 (Homo sapiens) (Q6P6C2 2-394 limits assumed): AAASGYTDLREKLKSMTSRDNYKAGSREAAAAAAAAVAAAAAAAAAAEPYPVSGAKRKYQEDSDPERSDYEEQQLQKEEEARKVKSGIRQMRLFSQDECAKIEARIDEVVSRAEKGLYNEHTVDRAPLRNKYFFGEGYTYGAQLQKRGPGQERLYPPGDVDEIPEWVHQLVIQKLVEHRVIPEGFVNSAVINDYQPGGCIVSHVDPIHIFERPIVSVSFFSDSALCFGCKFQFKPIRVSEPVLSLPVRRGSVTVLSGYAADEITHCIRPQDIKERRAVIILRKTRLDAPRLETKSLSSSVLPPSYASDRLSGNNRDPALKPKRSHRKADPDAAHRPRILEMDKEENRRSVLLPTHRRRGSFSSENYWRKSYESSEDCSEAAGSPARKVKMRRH

[7] = target: RNA demethylase ALKBH5 (Homo sapiens) (UniProt Q6P6C2); experiment: Inhibition of human recombinant ALKBH5 demethylase activity assessed as increase in methylated 6A-RNA level at 10 to 25 uM incubated for 30 min by dot blot analysis relative to control
[8] = test system: NCI-H460; experiment: Cytotoxicity against human H460 cells assessed as effect on cell viability at 1 to 50 uM measured after 24 hrs by SRB assay; type: functional, cell-based
[9] = target: RNA demethylase ALKBH5 (Homo sapiens) (UniProt Q6P6C2); experiment: Inhibition of ALKBH5 demethylase activity in human U87MG cells assessed as decrease in CD73 expression at 10 uM measured after 2 hrs by Western blot analysis; type: cell-based; details: U-87MG ATCC
[10] = test system: NCI-H460; experiment: Antiinvasive activity against human H460 cells assessed as reduction in cell invasion measured after 24 hrs using Diff-quick staining by light microscopy based Boyden chamber assay; type: functional
[11] = test system: U-87 MG; experiment: Antiinvasive activity against human U87MG cells assessed as reduction in cell invasion measured after 24 hrs using Diff-quick staining by light microscopy based Boyden chamber assay; type: functional, U-87MG ATCC
[12] = test system: U-87 MG; experiment: Cytotoxicity against human U87MG cells assessed as effect on cell viability at 1 to 50 uM measured after 24 hrs by MTT assay; type: functional, cell-based; details: U-87MG ATCC
[13] = test system: NCI-H460; experiment: Cytotoxicity against human H460 cells assessed as effect on cell viability at 1 to 50 uM measured after 24 hrs by MTT assay; type: functional, cell-based
[14] = test system: U-87 MG; experiment: Antiinvasive activity against human U87MG cells assessed as reduction in cell invasion at 25 to 50 uM measured after 24 hrs using Diff-quick staining by light microscopy based Boyden chamber assay relative to control; type: functional, U-87MG ATCC; design: scale not given: the % may be the effect or the level left
[15] = target: RNA demethylase ALKBH5 (Homo sapiens) (UniProt Q6P6C2); experiment: Inhibition of ALKBH5 demethylase activity in human U87MG cells assessed as decrease in CD73 expression at 10 uM measured after 1 hr by Western blot analysis; type: cell-based; details: U-87MG ATCC
[16] = test system: A549; experiment: Antiinvasive activity against human A549 cells assessed as reduction in cell invasion measured after 24 hrs using Diff-quick staining by light microscopy based Boyden chamber assay; type: functional
[17] = target: RNA demethylase ALKBH5 (Homo sapiens) (UniProt Q6P6C2); experiment: Inhibition of ALKBH5 demethylase activity in human U87MG cells assessed as decrease in CD73 expression measured after 1 to 24 hrs by Western blot analysis; type: cell-based; details: U-87MG ATCC
[18] = test system: A549; experiment: Cytotoxicity against human A549 cells assessed as reduction in cell viability after 24 hrs by SRB assay; type: functional, cell-based
[19] = test system: NCI-H460; experiment: Antimigratory activity against human H460 cells assessed as inhibition of cell migration measured after 24 hrs by scratch wound healing assay; type: functional, cell-based

For `CCCc1c(C)nc2c3ccccc3oc(=S)n12`, the Activity [1] was “inactive”, the Activity [2] was “Dose-dependent effect” and the IC50 [3] was 11 µM. The inhibition ([3]; U-87MG ATCC) was “Dose-dependent effect”, the Activity [4] was “inactive” and the Activity [5] was “inactive”. For the same compound, the inhibition [6] was “Dose-dependent effect”, the fold change (FC) [7] was 3 and the Activity [8] was “inactive”. The inhibition [9] was “Active”, the Activity [10] was “Dose-dependent effect” and the IC50 ([10]; NCI-H460, 24 h) was 17.8 µM. The IC50 [11] was 2.48 µM, the Activity ([11]; U-87MG ATCC) was “Dose-dependent effect” and the Activity [12] was “inactive”. The Activity [13] was “inactive”, the Activity [14] was 90% and the inhibition [15] was “Active”. For the same compound, the Activity [16] was “Dose-dependent effect”, the IC50 ([16]; A549, 24 h) was 26.2 µM and the inhibition [17] was “Dose-dependent effect”. For the same compound, the Activity [18] was “Dose-dependent effect”, the inhibition [19] was “Dose-dependent effect” and the IC50 ([19]; NCI-H460, 24 h) was 10.1 µM.
In the case of `NC1=N[C@H](O)[C@H]2[C@H]3O[C@]4(O)O[C@@H]([C@@H](O)[C@@]2(N1)[C@@H]4O)[C@]3(O)CO`, the Activity [10] is reported as “Dose-dependent effect”.
